This is an account of results in patent US20250114345A1, “COMPOUNDS AND COMPOSITIONS AS CBP/P300 DEGRADERS AND USES THEREOF” (Oncopia Therapeutics, Inc. d/b/a/ SK Life Science Labs, priority 2023, published 2025).

The target in experiment [1] is T1, CBP (Homo sapiens, UniProt Q92793).
T1 construct: host or cells: A549 CBP HiBit cells
Description: CBP degradation, HiBit technology in A549 CBP HiBit cells (24 h). The note with it: 24 hrs post treatment. It is filed as cell-based. The method in brief: (§1)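 HiBiT knock-in A549 cells received compound in serial dilution at 37 °C under 5% CO2. Remaining tagged protein was quantified by lytic HiBiT luminescence after 10 min shaking at room temperature, yielding potency and maximal degradation.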
A general note: The HiBiT peptide binds its large partner to form an active luciferase.

In experiment [2] the target is T2, p300 (Homo sapiens, UniProt Q09472).
T2 construct: host or cells: A549 P300 HiBit cells
Description: P300 degradation, HiBit technology in A549 P300 HiBit cells (2 h). It is filed as cell-based. The note with it: 2 hrs post treatment; for Dmax: A549, A549 P300 HiBit cells; for DC50: A549 P300 HiBit cells. The method in brief: as §1

T1 sequence (Q92793 whole entry): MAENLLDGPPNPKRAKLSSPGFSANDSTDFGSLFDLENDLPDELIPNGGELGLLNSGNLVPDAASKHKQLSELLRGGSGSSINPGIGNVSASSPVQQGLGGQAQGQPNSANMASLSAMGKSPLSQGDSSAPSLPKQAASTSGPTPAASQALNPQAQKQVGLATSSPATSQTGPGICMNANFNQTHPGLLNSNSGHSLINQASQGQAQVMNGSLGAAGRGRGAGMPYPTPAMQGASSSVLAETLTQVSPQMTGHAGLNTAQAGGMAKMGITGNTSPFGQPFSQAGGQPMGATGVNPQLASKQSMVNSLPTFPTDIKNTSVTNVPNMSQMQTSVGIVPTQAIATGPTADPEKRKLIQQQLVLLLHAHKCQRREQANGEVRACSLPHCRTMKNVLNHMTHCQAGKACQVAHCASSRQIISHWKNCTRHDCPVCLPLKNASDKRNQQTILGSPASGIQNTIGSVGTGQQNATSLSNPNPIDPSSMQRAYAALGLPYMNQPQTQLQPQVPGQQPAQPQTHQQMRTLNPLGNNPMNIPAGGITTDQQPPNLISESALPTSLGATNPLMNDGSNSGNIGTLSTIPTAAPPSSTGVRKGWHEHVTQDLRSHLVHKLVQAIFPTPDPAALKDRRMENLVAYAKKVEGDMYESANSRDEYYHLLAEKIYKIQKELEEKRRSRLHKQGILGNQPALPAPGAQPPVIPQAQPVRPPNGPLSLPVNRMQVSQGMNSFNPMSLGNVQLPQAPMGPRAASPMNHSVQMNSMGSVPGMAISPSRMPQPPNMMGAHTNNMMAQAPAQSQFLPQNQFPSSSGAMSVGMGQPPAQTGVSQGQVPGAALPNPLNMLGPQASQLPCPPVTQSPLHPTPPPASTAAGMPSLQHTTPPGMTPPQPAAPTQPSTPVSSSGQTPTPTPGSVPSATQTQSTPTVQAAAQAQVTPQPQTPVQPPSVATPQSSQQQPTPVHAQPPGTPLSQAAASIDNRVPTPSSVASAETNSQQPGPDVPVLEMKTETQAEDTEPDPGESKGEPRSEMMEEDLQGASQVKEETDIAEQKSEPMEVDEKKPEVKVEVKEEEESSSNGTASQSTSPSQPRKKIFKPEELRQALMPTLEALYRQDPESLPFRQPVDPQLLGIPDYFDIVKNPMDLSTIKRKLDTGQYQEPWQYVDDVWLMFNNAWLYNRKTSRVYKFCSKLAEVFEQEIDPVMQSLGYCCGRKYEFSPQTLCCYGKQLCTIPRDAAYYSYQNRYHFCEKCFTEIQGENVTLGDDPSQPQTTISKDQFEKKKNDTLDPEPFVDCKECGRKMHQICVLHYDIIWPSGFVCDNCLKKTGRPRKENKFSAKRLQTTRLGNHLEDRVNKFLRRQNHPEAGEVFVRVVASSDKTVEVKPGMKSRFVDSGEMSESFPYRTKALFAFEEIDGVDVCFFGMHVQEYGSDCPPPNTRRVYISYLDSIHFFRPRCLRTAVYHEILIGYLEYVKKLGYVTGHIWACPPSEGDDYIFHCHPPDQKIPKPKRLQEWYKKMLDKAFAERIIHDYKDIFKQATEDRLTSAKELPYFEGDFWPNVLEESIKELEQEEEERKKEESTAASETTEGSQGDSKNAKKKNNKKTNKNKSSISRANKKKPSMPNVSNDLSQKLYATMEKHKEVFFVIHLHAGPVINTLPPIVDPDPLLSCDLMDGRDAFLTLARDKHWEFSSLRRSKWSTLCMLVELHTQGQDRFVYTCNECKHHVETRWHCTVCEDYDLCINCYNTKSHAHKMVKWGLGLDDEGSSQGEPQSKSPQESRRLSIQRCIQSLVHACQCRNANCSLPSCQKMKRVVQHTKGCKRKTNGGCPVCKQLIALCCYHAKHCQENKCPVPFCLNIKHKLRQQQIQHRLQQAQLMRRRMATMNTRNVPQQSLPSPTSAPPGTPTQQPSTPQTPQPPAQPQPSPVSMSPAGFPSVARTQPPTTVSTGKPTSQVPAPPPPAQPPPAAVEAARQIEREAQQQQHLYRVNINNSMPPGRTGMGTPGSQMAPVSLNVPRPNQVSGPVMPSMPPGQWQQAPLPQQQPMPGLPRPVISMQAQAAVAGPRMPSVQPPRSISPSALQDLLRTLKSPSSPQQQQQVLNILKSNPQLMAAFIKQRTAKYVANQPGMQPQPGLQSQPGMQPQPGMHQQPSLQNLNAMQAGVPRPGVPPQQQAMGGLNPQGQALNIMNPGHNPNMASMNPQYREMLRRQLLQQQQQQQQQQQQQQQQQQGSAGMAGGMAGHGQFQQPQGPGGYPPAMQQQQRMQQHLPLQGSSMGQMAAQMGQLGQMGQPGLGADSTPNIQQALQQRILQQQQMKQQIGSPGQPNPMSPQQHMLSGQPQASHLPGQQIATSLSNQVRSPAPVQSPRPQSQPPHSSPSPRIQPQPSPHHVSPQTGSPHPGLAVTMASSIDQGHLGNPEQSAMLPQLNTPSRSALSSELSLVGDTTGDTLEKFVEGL
T2 sequence (Q09472 whole entry): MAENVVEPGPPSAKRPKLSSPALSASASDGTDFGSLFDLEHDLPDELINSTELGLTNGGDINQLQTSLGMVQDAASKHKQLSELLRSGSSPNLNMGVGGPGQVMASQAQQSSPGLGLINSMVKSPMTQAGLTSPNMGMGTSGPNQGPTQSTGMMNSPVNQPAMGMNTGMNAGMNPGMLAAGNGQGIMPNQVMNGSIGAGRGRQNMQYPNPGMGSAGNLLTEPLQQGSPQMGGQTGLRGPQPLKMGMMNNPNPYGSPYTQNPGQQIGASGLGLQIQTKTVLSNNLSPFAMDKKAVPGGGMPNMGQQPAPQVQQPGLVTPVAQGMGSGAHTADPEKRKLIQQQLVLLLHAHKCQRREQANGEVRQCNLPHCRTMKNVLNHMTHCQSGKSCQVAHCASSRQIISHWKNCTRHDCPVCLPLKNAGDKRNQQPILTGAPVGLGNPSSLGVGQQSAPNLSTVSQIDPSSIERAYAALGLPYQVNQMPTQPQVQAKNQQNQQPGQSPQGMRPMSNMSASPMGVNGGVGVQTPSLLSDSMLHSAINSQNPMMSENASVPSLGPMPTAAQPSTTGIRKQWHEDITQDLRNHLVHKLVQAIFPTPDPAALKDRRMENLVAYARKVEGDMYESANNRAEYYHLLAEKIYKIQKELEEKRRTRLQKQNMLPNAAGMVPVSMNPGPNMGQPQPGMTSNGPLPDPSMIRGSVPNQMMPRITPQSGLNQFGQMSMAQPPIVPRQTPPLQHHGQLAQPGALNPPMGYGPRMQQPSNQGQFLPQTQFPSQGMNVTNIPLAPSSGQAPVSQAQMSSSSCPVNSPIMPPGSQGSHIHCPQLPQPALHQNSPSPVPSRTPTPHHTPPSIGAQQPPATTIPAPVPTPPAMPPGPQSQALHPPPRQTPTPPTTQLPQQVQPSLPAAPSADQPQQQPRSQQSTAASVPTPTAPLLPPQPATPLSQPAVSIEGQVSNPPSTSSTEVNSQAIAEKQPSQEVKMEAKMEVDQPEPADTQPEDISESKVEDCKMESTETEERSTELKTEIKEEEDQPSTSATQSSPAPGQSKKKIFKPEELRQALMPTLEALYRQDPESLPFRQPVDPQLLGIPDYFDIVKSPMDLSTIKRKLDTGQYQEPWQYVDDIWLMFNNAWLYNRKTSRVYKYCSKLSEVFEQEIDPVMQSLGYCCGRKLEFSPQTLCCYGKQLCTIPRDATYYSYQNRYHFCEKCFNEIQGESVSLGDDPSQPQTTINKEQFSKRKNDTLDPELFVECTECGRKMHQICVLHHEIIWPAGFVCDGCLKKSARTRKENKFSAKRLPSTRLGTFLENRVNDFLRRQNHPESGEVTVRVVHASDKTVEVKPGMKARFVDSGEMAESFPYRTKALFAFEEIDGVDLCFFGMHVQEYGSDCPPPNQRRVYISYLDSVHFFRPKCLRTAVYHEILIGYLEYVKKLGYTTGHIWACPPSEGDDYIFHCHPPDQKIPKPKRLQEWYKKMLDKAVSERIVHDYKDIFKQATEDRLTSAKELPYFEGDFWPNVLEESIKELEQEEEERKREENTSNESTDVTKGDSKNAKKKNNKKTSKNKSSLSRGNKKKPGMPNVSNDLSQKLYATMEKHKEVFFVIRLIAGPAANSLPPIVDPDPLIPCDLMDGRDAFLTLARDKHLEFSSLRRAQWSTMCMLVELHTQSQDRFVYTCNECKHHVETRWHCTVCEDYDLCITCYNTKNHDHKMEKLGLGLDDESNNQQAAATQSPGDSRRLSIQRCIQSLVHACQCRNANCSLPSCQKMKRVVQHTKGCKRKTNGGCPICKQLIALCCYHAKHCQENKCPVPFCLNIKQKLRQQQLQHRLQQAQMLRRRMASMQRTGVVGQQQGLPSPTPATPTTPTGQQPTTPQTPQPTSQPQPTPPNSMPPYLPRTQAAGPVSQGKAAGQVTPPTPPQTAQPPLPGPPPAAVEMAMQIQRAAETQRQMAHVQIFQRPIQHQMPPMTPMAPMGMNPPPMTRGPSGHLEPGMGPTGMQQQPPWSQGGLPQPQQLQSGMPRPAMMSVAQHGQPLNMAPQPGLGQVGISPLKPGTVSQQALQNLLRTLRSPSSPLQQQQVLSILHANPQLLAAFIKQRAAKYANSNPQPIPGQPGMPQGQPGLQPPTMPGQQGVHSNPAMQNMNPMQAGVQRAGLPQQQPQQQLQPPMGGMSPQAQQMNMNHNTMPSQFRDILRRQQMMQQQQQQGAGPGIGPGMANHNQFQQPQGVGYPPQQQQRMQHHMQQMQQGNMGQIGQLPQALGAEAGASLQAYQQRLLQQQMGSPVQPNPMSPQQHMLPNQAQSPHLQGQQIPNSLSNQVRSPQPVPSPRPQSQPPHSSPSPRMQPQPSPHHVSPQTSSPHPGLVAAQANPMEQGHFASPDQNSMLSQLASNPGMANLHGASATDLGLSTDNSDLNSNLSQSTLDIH

In the case of `Cc1cc2c(N3CCN(C)c4nc(-c5ccc(C(=O)NCC#Cc6ccc7occ(C8CCC(=O)NC8=O)c7c6)nc5)ncc43)cc(C3CCOCC3)cc2n(C)c1=O` (stereo not drawn) [Example B124, 5-(5-(1,3-dimethyl-2-oxo-7-(tetrahydro-2H-pyran-4-yl)-1,2-dihydroquinolin-5-yl)-8-methyl-5,6,7,8-tetrahydropteridin-2-yl)-N-(3-(3-(2,6-dioxopiperidin-3-yl)benzofuran-5-yl)prop-2-yn-1-yl)picolinamide], in experiment [1], the DC50 is 1 to 9.9 nM and the Dmax was 40 to 59%. In experiment [2], this compound showed a Dmax of more than 80% and a DC50 of less than 1 nM.
In experiment [1], `Cn1c(=O)n(C)c2cc(-c3cccc4cc(-c5ccc(C(=O)NCC#Cc6cc7c(C8CCC(=O)NC8=O)cccc7o6)nc5)ncc34)ccc21` (stereo not drawn) [Example A169, 5-(8-(1,3-dimethyl-2-oxo-2,3-dihydro-1H-benzo[d]imidazol-5-yl)isoquinolin-3-yl)-N-(3-(4-(2,6-dioxo-piperidin-3-yl)benzofuran-2-yl)prop-2-yn-1-yl)picolinamide] had a DC50 of more than 1000 nM and a Dmax of less than 20%. In experiment [2], this compound returned a Dmax of more than 80% and a DC50 of less than 1 nM.
In experiment [1], `Cc1cc(-c2cc3cccc(-c4cc(F)c5c(c4)n(C)c(=O)n5C)c3cn2)cnc1C(=O)NCC#Cc1ccc2occ(C3CCC(=O)NC3=O)c2c1` (stereo not drawn) [Example A66, N-(3-(3-(2,6-dioxopiperidin-3-yl)benzofuran-5-yl)prop-2-yn-1-yl)-5-(8-(7-fluoro-1,3-dimethyl-2-oxo-2,3-dihydro-1H-benzo[d]imidazol-5-yl)isoquinolin-3-yl)-3-methylpicolinamide] had a DC50 of more than 1000 nM and a Dmax of less than 20%. Moreover, in experiment [2], the Dmax was more than 80% and the DC50 is 1 to 9.9 nM.
The matching figures for `Cn1c(=O)n(C)c2cc(-c3cccc4cc(-c5ccc(C(=O)NCC#Cc6cc7c(C8CCC(=O)NC8=O)nccc7o6)nc5)ncc34)ccc21` (stereo not drawn) [Example A213, 5-(8-(1,3-dimethyl-2-oxo-2,3-dihydro-1H-benzo[d]imidazol-5-yl)isoquinolin-3-yl)-N-(3-(4-(2,6-dioxo-piperidin-3-yl)furo[3,2-c]pyridin-2-yl)prop-2-yn-1-yl)picolinamide]: more than 1000 nM, less than 20%, more than 80% and less than 1 nM.
As to `Cc1cc2c(N3CCCc4nc(-c5ccc(C(=O)NCC#Cc6ccc7occ(C8CCC(=O)NC8=O)c7c6)nc5)ncc43)cc(C3CCOCC3)nc2n(C)c1=O` (stereo not drawn) [Example B76, 5-(5-(6,8-dimethyl-7-oxo-2-(tetrahydro-2H-pyran-4-yl)-7,8-dihydro-1,8-naphthyridin-4-yl)-5,6,7,8-tetrahydropyrido[3,2-d]pyrimidin-2-yl)-N-(3-(3-(2,6-dioxopiperidin-3-yl)benzofuran-5-yl)prop-2-yn-1-yl)picolinamide], the DC50 in experiment [1] is 100 to 999 nM; in experiment [2], 1 to 9.9 nM. The Dmax is less than 20% in experiment [1] and more than 80% in experiment [2].
For `Cc1cc(-c2ncc(N(C)c3cc(C4CCOCC4)c4c(c3)n(C)c(=O)n4C)cn2)cnc1C(=O)NCC#Cc1ccc2occ(C3CCC(=O)NC3=O)c2c1` (stereo not drawn) [Example A53, 5-(5-((1,3-dimethyl-2-oxo-7-(tetrahydro-2H-pyran-4-yl)-2,3-dihydro-1H-benzo[d]imidazol-5-yl)(methyl)amino)pyrimidin-2-yl)-N-(3-(3-(2,6-dioxo-piperidin-3-yl)benzofuran-5-yl)prop-2-yn-1-yl)-3-methylpicolinamide] the same measures were more than 1000 nM, less than 1 nM, less than 20% and more than 80%.
With `Cc1cc2c(N3CCCc4nc(-c5ccc(C(=O)NCC#Cc6ccc7occ(C8CCC(=O)NC8=O)c7c6)nc5)ncc43)nc(N3CC4(COC4)C3)cc2n(C)c1=O` (stereo not drawn) [Example B137, 5-(5-(1,3-dimethyl-2-oxo-7-(2-oxa-6-azaspiro[3.3]heptan-6-yl)-1,2-dihydro-1,6-naphthyridin-5-yl)-5,6,7,8-tetrahydropyrido [3,2-d]pyrimidin-2-yl)-N-(3-(3-(2,6-dioxo-piperidin-3-yl)benzofuran-5-yl)prop-2-yn-1-yl)picolinamide], in experiment [1], the DC50 is more than 1000 nM and the Dmax is less than 20%. In experiment [2], this compound displayed a Dmax of 60 to 79% and a DC50 of 1 to 9.9 nM.
For `Cc1cc2c(N3CCCc4nc(-c5ccc(C(=O)NCC#Cc6ccc7occ(C8CCC(=O)NC8=O)c7c6)nc5)ncc43)cc(C3CCOCC3)cc2n(C)c1=O` (stereo not drawn) [Example B53, 5-(5-(1,3-dimethyl-2-oxo-7-(tetrahydro-2H-pyran-4-yl)-1,2-dihydroquinolin-5-yl)-5,6,7,8-tetrahydropyrido[3,2-d]pyrimidin-2-yl)-N-(3-(3-(2,6-dioxopiperidin-3-yl)benzofuran-5-yl)prop-2-yn-1-yl)picolinamide] the same measures were more than 1000 nM, less than 20%, more than 80% and less than 1 nM.
For `Cc1cc2c(-c3cccc4cc(-c5ccc(C(=O)NCC#Cc6ccc7occ(C8CCC(=O)NC8=O)c7c6)nc5)ncc34)nc(N3CCOCC3)cc2n(C)c1=O` (stereo not drawn) [Example B92, 5-(8-(1,3-dimethyl-7-morpholino-2-oxo-1,2-dihydro-1,6-naphthyridin-5-yl)isoquinolin-3-yl)-N-(3-(3-(2,6-dioxopiperidin-3-yl)benzofuran-5-yl)prop-2-yn-1-yl)picolinamide] the same measures were 10 to 99 nM, 20 to 39%, more than 80% and 1 to 9.9 nM.
For `CCn1c(=O)n(C)c2c(N3CCOCC3)nc(-c3cccc4cc(-c5ccc(C(=O)NCC#Cc6cc7c(C8CCC(=O)NC8=O)cccc7o6)nc5)ncc34)cc21` (stereo not drawn) [Example A260, N-(3-(4-(2,6-dioxo-piperidin-3-yl)benzofuran-2-yl)prop-2-yn-1-yl)-5-(8-(1-ethyl-3-methyl-4-morpholino-2-oxo-2,3-dihydro-1H-imidazo[4,5-c]pyridin-6-yl)isoquinolin-3-yl)picolinamide] the same measures were more than 1000 nM, less than 20%, more than 80% and less than 1 nM.
In experiment [1], `Cc1cc2c(N3CCCc4nc(-c5ccc(C(=O)NCC#Cc6cc7c(C8CCC(=O)NC8=O)cccc7o6)nc5)ncc43)cccc2n(C)c1=O` (stereo not drawn) [Example B67, 5-(5-(1,3-dimethyl-2-oxo-1,2-dihydroquinolin-5-yl)-5,6,7,8-tetrahydropyrido[3,2-d]pyrimidin-2-yl)-N-(3-(4-(2,6-dioxopiperidin-3-yl)benzofuran-2-yl)prop-2-yn-1-yl)picolinamide] registered a DC50 of 100 to 999 nM and a Dmax of less than 20%. Further, in experiment [2], the Dmax is more than 80% and the DC50 is less than 1 nM.
As to `Cc1cc2c(N3CCCc4nc(-c5ccc(C(=O)NCC#Cc6ccc7occ([C@H]8CCC(=O)NC8=O)c7c6)nc5)ncc43)cc(C3CCOCC3)cc2n(C)c1=O` [Example B54, (R)-5-(5-(1,3-dimethyl-2-oxo-7-(tetrahydro-2H-pyran-4-yl)-1,2-dihydroquinolin-5-yl)-5,6,7,8-tetrahydropyrido[3,2-d]pyrimidin-2-yl)-N-(3-(3-(2,6-dioxopiperidin-3-yl)benzofuran-5-yl)prop-2-yn-1-yl)picolinamide], the DC50 is more than 1000 nM in experiment [1] and less than 1 nM in experiment [2]. The Dmax in experiment [1] is less than 20%; in experiment [2], more than 80%.

What is called DC50 is the concentration giving 50% degradation. For orientation: Dmax means the largest share of the target that was removed. Lower therefore signals a partial loss of target.
